Experimental data from patent US20070148710A1, “Cpt resistant cell line” (priority 2003, published 2007).

How the values were obtained:
Assay type in all cases: cell-based, human
SW948CPTL cells = assay: intracellular accumulation of CPT-11 (HPLC), effect of verapamil; settings: SW948CPTL vs parent SW948; CPT-11 160 μM, 2 hours, 37° C. (FIG. 6A)
Source text: (§1) 10. […] Cells were washed, trypsinized, and counted. Cell pellets were lysed with water and sonicated. […] Results were generated from three independent experiments. […] Data are expressed as mean±SD. […] Data are the mean±SD of two experiments done in triplicate.
(§2) Additionally, multidrug resistance can be evaluated by measuring the expression level of p-glycoprotein (p-gp) (Juliano et al Biochim Biophys Acta 11:152-162, 1976) and breast cancer resistant protein (BCRP) (Doyle et al Proc Natl Acad Sci U S A 95:15665-15670, 1998) in SW948 and the resistant SW948 cell lines (SW948CPTH and SW948CPTL). It is understood that the disclosed methods can also be used with other cell lines including other colon cancer cell lines. For example, the disclosed methods can be used with LS174T, WiDr, HT-29, SW403, DLD-1, SW480, SNU-C1, Caco-2, and COLO 205 cell lines.

SW948CPTH cells = assay: as above; settings: SW948CPTH vs parent SW948; CPT-11 160 μM, 2 hours, 37° C. (FIG. 6A)
Source text: as §1, §2

SW948 cells = assay: cell cycle analysis
[1] = SW948 parent cell line, dose dependent

With CCc1c2c(nc3ccc(OC(=O)N4CCC(N5CCCCC5)CC4)cc13)-c1cc3c(c(=O)n1C2)COC(=O)[C@]3(O)CC [CPT-11, Irinotecan] the “intracellular accumulation of CPT-11” value (SW948CPTL cells) was “lower than the parent cell line SW948”, the “intracellular accumulation of CPT-11” value (SW948CPTH cells) was “lower than the parent cell line SW948” and the “G0-G1(%)” value (SW948 cells; SW948, CPT-11 1 μg/ml) was 36.0 ± 3.2%. For the same compound, the “S(%)” value (SW948 cells; SW948, CPT-11 1 μg/ml) was 39.6 ± 3.8%, the “G0-G1(%)” value (SW948 cells; SW948, CPT-11 2 μg/ml) was 22.1 ± 2.0% and the “G2-M(%)” value (SW948 cells; SW948, CPT-11 2 μg/ml) was 35.8 ± 5.1%. For the same compound, the “S(%)” value (SW948 cells; SW948, CPT-11 2 μg/ml) was 42.1 ± 6.7%, the “G0-G1(%)” value (SW948 cells; SW948, CPT-11 5 μg/ml) was 17.0 ± 1.9% and the “G2-M(%)” value (SW948 cells; SW948, CPT-11 5 μg/ml) was 41.0 ± 2.5%. For the same compound, the “S(%)” value (SW948 cells; SW948, CPT-11 5 μg/ml) was 42 ± 2.5%, the “change of S phase” value (SW948 cells; SW948 parent cell line) was “No obvious changes” and the “change of percentage of cells in the G0-G1 phase” value (SW948 cells; [1]) was “decreased”. For the same compound, the “change of percentage of cells in the G2-M phase” value (SW948 cells; [1]) was “increased”.
